Reference: US6737383B1, “Herbicidal oxadiazolidines” (priority 1999, dated 2004)

Columns and labels:
bedstraw = test: Test B pre/postemergence bedstraw; type: in vivo, Galium aparine
Summary of the method: (§1)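 Test chemicals in a non-phytotoxic solvent mixture with surfactant were sprayed preemergence onto planted seeds and postemergence onto plants 2 to 18 cm tall (1- to 4-leaf stage). After twelve to sixteen days in a greenhouse, injury was visually rated against untreated controls from 0 (no effect) to 10 (complete control).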

soybean = test: Test B pre/postemergence soybean; type: in vivo, Glycine max
Summary of the method: as §1

morningglory = test: Test B pre/postemergence morningglory; type: in vivo, Ipomoea hederacea
Summary of the method: as §1

corn = test: Test B pre/postemergence corn; type: in vivo, Zea mays
Summary of the method: as §1

sugar beet = test: Test B pre/postemergence sugar beet; type: in vivo, Beta vulgaris
Summary of the method: as §1

giant foxtail = test: Test B pre/postemergence giant foxtail; type: in vivo, Setaria faberii
Summary of the method: as §1

purple nutsedge = test: Test B pre/postemergence purple nutsedge; type: in vivo, Cyperus rotundus
Summary of the method: as §1

cocklebur = test: Test B pre/postemergence cocklebur; type: in vivo, Xanthium strumarium
Summary of the method: as §1

velvetleaf = test: Test B pre/postemergence velvetleaf; type: in vivo, Abutilon theophrasti
Summary of the method: as §1

bamyardgrass = test: Test B flood test barnyardgrass; type: in vivo, Echinochloa crus-galli; details: Pre-emergence
Summary of the method: (§2)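 Read-out is a visual response score from 0 (no effect) to 10 (complete control), assigned by comparison with untreated controls. Treatment was applied at the 2-leaf stage, and plants stayed in the greenhouse for twelve to sixteen days before scoring.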

blackgrass = test: Test B pre/postemergence blackgrass; type: in vivo, Alopecurus myosuroides
Summary of the method: as §1

surinam grass = test: Test B pre/postemergence surinam grass; type: in vivo, Brachiaria decumbens
Summary of the method: as §1

pigweed = test: Test B pre/postemergence pigweed; type: in vivo, Amaranthus retroflexus
Summary of the method: as §1

smallflower flatsedge = test: Test B flood test smallflower flatsedge; type: in vivo, Cyperus difformis; details: Pre-emergence
Summary of the method: as §2

duck salad = test: Test B flood test duck salad; type: in vivo, Heteranthera limosa; details: Pre-emergence
Summary of the method: as §2

rape = test: Test B pre/postemergence rape; type: in vivo, Brassica napus
Summary of the method: as §1

[1] = Preemergence, Rate 62 g/ha, scale of 0 to 10 where 0 is no effect and 10 is complete control
[2] = Preemergence, Rate 250 g/ha, scale of 0 to 10 where 0 is no effect and 10 is complete control
[3] = Preemergence, Rate 500 g/ha, scale of 0 to 10 where 0 is no effect and 10 is complete control
[4] = Rate 62 g/ha, Postemergence, scale 0 to 10 (0 no effect, 10 complete control)
[5] = Rate 125 g/ha, Postemergence, scale of 0 to 10 where 0 is no effect and 10 is complete control
[6] = Rate 250 g/ha, Postemergence, scale of 0 to 10 where 0 is no effect and 10 is complete control
[7] = Rate 500 g/ha, Postemergence, scale 0 to 10, 0 no effect, 10 complete control
[8] = Rate 1000 g/ha, scale 0 to 10 (0 no effect, 10 complete control)
[9] = Rate 125 g/ha, flood test species, scale 0 to 10 where 0 is no effect and 10 is complete control
[10] = Rate 250 g/ha, flood-test species, scale 0 to 10, 0 is no effect, 10 is complete control
[11] = Rate 500 g/ha, flood test species, scale 0 to 10 (0 no effect, 10 complete control)

C=CCn1c(=O)on(C(=O)N(CC)C2CCCCC2)c1=O [Compound 307]
6: Giant foxtail plant response rating (giant foxtail; [1])
4: Blackgrass plant response rating (blackgrass; [3]) | B. signalgrass plant response rating (surinam grass; [3]) | Redroot pigweed plant response rating (pigweed; [3])
9: Giant foxtail plant response rating (giant foxtail; [2]) | Giant foxtail plant response rating (giant foxtail; [3])
0: Bedstraw plant response rating (bedstraw; [1]) | Bedstraw plant response rating (0 to 10 scale) (bedstraw; Preemergence, Rate 125 g/ha) | Bedstraw plant response rating (bedstraw; [2]) | Bedstraw plant response rating (bedstraw; [3]) | Bedstraw plant response rating (bedstraw; [4]) | Bedstraw plant response rating (bedstraw; [5]) | Plant response rating, Bedstraw (bedstraw; [6]) | Bedstraw plant response rating (bedstraw; [7]) | Soybean plant response rating (soybean; [1]) | Soybean plant response rating (0 to 10 scale) (soybean; Preemergence, Rate 125 g/ha) | Soybean plant response rating (soybean; [2]) | Soybean plant response rating (soybean; [3]) | Soybean plant response rating (soybean; [4]) | Morningglory plant response rating (morningglory; [1]) | Morningglory plant response rating (0 to 10 scale) (morningglory; Preemergence, Rate 125 g/ha) | Morningglory plant response rating (morningglory; [2]) | Morningglory plant response rating (morningglory; [3]) | Morningglory plant response rating (morningglory; [4]) | Corn plant response rating (corn; [1]) | Corn plant response rating (0 to 10 scale) (corn; Preemergence, Rate 125 g/ha) | Corn plant response rating (corn; [2]) | Corn plant response rating (corn; [4]) | Corn plant response rating (corn; [5]) | Plant response rating, Corn (corn; [6]) | Corn plant response rating (corn; [7]) | Sugarbeets plant response rating (sugar beet; [1]) | Sugarbeets plant response rating (0 to 10 scale) (sugar beet; Preemergence, Rate 125 g/ha) | Sugarbeets plant response rating (sugar beet; [2]) | Sugarbeets plant response rating (sugar beet; [4]) | Sugarbeets plant response rating (sugar beet; [5]) | Plant response rating, Sugarbeets (sugar beet; [6]) | Giant foxtail plant response rating (giant foxtail; [4]) | Giant foxtail plant response rating (giant foxtail; [5]) | Plant response rating, Giant foxtail (giant foxtail; [6]) | Nutsedge plant response rating (purple nutsedge; [1]) | Nutsedge plant response rating (0 to 10 scale) (purple nutsedge; Preemergence, Rate 125 g/ha) | Nutsedge plant response rating (purple nutsedge; [2]) | Nutsedge plant response rating (purple nutsedge; [3]) | Nutsedge plant response rating (purple nutsedge; [4]) | Nutsedge plant response rating (purple nutsedge; [5]) | Plant response rating, Nutsedge (purple nutsedge; [6]) | Cocklebur plant response rating (cocklebur; [1]) | Cocklebur plant response rating (0 to 10 scale) (cocklebur; Preemergence, Rate 125 g/ha) | Cocklebur plant response rating (cocklebur; [2]) | Cocklebur plant response rating (cocklebur; [4]) | Cocklebur plant response rating (cocklebur; [5]) | Plant response rating, Cocklebur (cocklebur; [6]) | Cocklebur plant response rating (cocklebur; [7]) | Velvetleaf plant response rating (velvetleaf; [1]) | Velvetleaf plant response rating (0 to 10 scale) (velvetleaf; Preemergence, Rate 125 g/ha) | Velvetleaf plant response rating (velvetleaf; [2]) | Velvetleaf plant response rating (velvetleaf; [4]) | Velvetleaf plant response rating (velvetleaf; [5]) | Plant response rating, Velvetleaf (velvetleaf; [6]) | Barnyardgrass plant response rating (bamyardgrass; [8]) | Barnyardgrass plant response rating (bamyardgrass; [9]) | Barnyardgrass plant response rating (bamyardgrass; [10]) | Barnyardgrass plant response rating (bamyardgrass; [11]) | Blackgrass plant response rating (blackgrass; [1]) | Blackgrass plant response rating (0 to 10 scale) (blackgrass; Preemergence, Rate 125 g/ha) | Blackgrass plant response rating (blackgrass; [4]) | Blackgrass plant response rating (blackgrass; [5]) | Plant response rating, Blackgrass (blackgrass; [6]) | Blackgrass plant response rating (blackgrass; [7]) | B. signalgrass plant response rating (surinam grass; [1]) | B. signalgrass plant response rating (0 to 10 scale, 0 is no effect, 10 is complete control) (surinam grass; Preemergence, Rate 125 g/ha) | B. signalgrass plant response rating (surinam grass; [2]) | B. signalgrass plant response rating (surinam grass; [4]) | B. signalgrass plant response rating (surinam grass; [5]) | Plant response rating, B. signalgrass (surinam grass; [6]) | B. signalgrass plant response rating (surinam grass; [7]) | Redroot pigweed plant response rating (pigweed; [1]) | Redroot pigweed plant response rating (0 to 10 scale) (pigweed; Preemergence, Rate 125 g/ha) | Redroot pigweed plant response rating (pigweed; [2]) | Redroot pigweed plant response rating (pigweed; [4]) | Redroot pigweed plant response rating (pigweed; [5]) | Plant response rating, Redroot pigweed (pigweed; [6]) | S. Flatsedge plant response rating (smallflower flatsedge; [8]) | S. Flatsedge plant response rating (smallflower flatsedge; [9]) | S. Flatsedge plant response rating (smallflower flatsedge; [10]) | S. Flatsedge plant response rating (smallflower flatsedge; [11]) | Ducksalad plant response rating (duck salad; [8]) | Ducksalad plant response rating (duck salad; [9]) | Ducksalad plant response rating (duck salad; [10]) | Ducksalad plant response rating (duck salad; [11]) | Rape plant response rating (rape; [1]) | Rape plant response rating (0 to 10 scale) (rape; Preemergence, Rate 125 g/ha) | Rape plant response rating (rape; [2]) | Rape plant response rating (rape; [3]) | Rape plant response rating (rape; [4]) | Rape plant response rating (rape; [5]) | Plant response rating, Rape (rape; [6])
8: Giant foxtail plant response rating (0 to 10 scale) (giant foxtail; Preemergence, Rate 125 g/ha)
2: Soybean plant response rating (soybean; [5]) | Plant response rating, Soybean (soybean; [6]) | Morningglory plant response rating (morningglory; [5]) | Plant response rating, Morningglory (morningglory; [6]) | Corn plant response rating (corn; [3]) | Sugarbeets plant response rating (sugar beet; [3]) | Velvetleaf plant response rating (velvetleaf; [3]) | Blackgrass plant response rating (blackgrass; [2])
